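48-hour exposure; five concentrations; linearly interpolated endpoints. GI50: concentration for 50% inhibition of growth. TGI: concentration producing complete growth inhibition.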
How the values were obtained:
Experiment in all cases: inhibition of tumour cell growth, NCI panel, 48 h
HOP-92 NSCLC = test system: HOP-92 NSCLC
MOLT-4 leukemia = test system: MOLT-4 leukemia
CCRF-CEM leukemia = test system: CCRF-CEM leukemia
CAKI-1 renal = test system: CAKI-1 renal
HCT-15 colon = test system: HCT-15 colon
SN12C renal = test system: SN12C renal
SK-MEL-2 melanoma = test system: SK-MEL-2 melanoma
SW-620 colon = test system: SW-620 colon
M14 melanoma = test system: M14 melanoma
UACC-257 melanoma = test system: UACC-257 melanoma

Compound | TGI (HOP-92 NSCLC) [µM] | TGI (MOLT-4 leukemia) [µM] | TGI (CCRF-CEM leukemia) [µM] | TGI (CAKI-1 renal) [µM] | TGI (HCT-15 colon) [µM] | TGI (SN12C renal) [µM] | TGI (SK-MEL-2 melanoma) [µM] | TGI (SW-620 colon) [µM] | TGI (M14 melanoma) [µM] | TGI (UACC-257 melanoma) [µM] | GI50 (HOP-92 NSCLC) [µM] | GI50 (MOLT-4 leukemia) [µM] | GI50 (CCRF-CEM leukemia) [µM] | GI50 (CAKI-1 renal) [µM] | GI50 (HCT-15 colon) [µM] | GI50 (SN12C renal) [µM] | GI50 (SK-MEL-2 melanoma) [µM] | GI50 (SW-620 colon) [µM] | GI50 (M14 melanoma) [µM] | GI50 (UACC-257 melanoma) [µM]
O=C(/C=C/c1ccccc1)CCC1C(=O)c2ccccc2C1=O | > 100 | > 100 | > 100 | > 100 | > 100 | > 100 | > 100 | > 100 | > 100 | > 100 |  |  |  |  |  |  |  |  |  | 
Cn1cc(C2=C(c3ccc(N)cc3)C(=O)NC2=O)c2ccccc21 | > 25 | > 25 | > 25 | > 25 | > 25 | > 25 | > 19 | > 25 | > 25 | > 25 | > 25 | 9.3 | 12.3 | > 18.9 | 11.5 | 16.3 | 8.38 | 13.7 | > 20.4 | > 25
CCCCCCCCCCCCCC(=O)OCC(C[As](=O)(O)O)OC(=O)CCCCCCCCCCCCC (stereo not drawn) | > 100 | > 100 | > 100 | > 100 | > 100 | > 100 | > 100 | 47 | > 100 | > 100 |  |  |  |  |  |  |  |  |  | 
CCN(CC)CCC(CNc1ccnc2cc(Cl)ccc12)c1ccc(Cl)cc1 (stereo not drawn) | 3.19 | 9.27 | 6.29 | 2.36 | 4.89 | 10.4 | 3.18 | 3.39 | 0.47 | 2.37 | 0.995 | 1.6 | 1.27 | 0.496 | 1.05 | 1.84 | 1.57 | 1.48 | 0.211 | 1.02
O=C(Nc1ccc2ncccc2c1)Nc1ccc2ncccc2c1 | > 100 | > 100 | > 100 | > 100 | > 100 | > 100 | > 100 | > 100 | > 100 | > 100 |  |  |  |  |  |  |  |  |  | 
N#CN/C(N)=N/CO | > 100 | > 100 | > 100 | > 100 | > 56.9 | > 100 | > 100 | > 56.3 | > 100 | > 100 |  |  |  |  |  |  |  |  |  | 
O=c1/c(=C/c2ccccc2[N+](=O)[O-])sc2nnc(-c3ccco3)n12 | > 100 | 62 | 49.8 | > 100 | 75.8 | > 100 | 34.6 | 46.8 | 33.3 | > 100 |  |  |  |  |  |  |  |  |  | 
CCOC(=O)c1cnc2c(ccc3[nH]n(C)nc32)c1=O | > 100 | > 100 | > 100 | > 100 | > 100 | > 100 | 46.1 | 36.8 | > 100 | > 100 |  |  |  |  |  |  |  |  |  | 
CC(=O)CCn1c(=S)sc2ccccc21 | > 100 | > 100 | > 100 | > 100 | > 100 | > 100 | > 100 | > 100 | > 100 | > 100 |  |  |  |  |  |  |  |  |  | 
Cn1c(I)c(C#CCO[Si](C)(C)C(C)(C)C)c(=O)[nH]c1=O | 4.67 | 4.32 | 4.17 | 12.6 | 27.6 | 34.2 | 27.7 | 4.14 | 28.7 | 27.3 | 2.14 | 1.82 | 1.92 | 3.29 | 13.5 | 17.1 | 13.9 | 1.96 | 14 | 12.9
COc1cccc(F)c1C(=O)c1cnc(NC2CCN(S(C)(=O)=O)CC2)nc1N | 9.15 | > 14.7 | > 25 | > 22.9 | > 25 | > 25 | 9.94 | > 18.1 | > 25 | 15.3 | 1.05 | 2.14 | 2.51 | 3.4 | 3.63 | 5.08 | 3.43 | 0.781 | 5.33 | 3.97
Cc1cc(C)c2c(n1)sc1c(Nc3ccc(Cl)cc3)ncnc12 |  | > 100 | > 100 | > 27.6 | > 100 | > 100 | > 100 | > 100 |  | > 100 | 0.0288 | < 0.01 | < 0.01 | < 0.01 | < 0.01 | 0.0312 | > 100 | < 0.01 | < 0.01 | 0.107
CC(=O)OC1COC(Oc2c(C)c3c4c(c2O)[C@@H](C)CC[C@@H]4[C@@H](C)C[C@H]3C=C(C)C)C(O)C1OC(C)=O (stereo partly drawn) | 35.1 | 25.6 | 33.4 | 26.3 | 21.2 | 25.8 | 42.1 | > 100 | 27.8 | 28.4 | 16.3 | 6.64 | 12 | 12.6 | 5.76 | 12.4 | 17.9 | 36.4 | 13.7 | 14.1
c1ccc(-c2nnc(-c3ccccn3)s2)nc1 | > 100 | > 100 | > 100 | > 100 | > 100 | > 100 | > 100 | > 100 | > 100 | > 100 | 7.46 | > 100 | > 100 | > 100 | 83.7 | > 100 | > 100 | > 100 | > 100 | > 100
O=C1CCC2(c3ccc(Cl)cc3)Nc3ncccc3N12 (stereo not drawn) | > 100 | > 100 | > 100 | > 100 | > 100 | > 100 | > 100 | > 100 | > 100 | > 100 |  |  |  |  |  |  |  |  |  | 
COc1cc(-c2oc(=O)ccc2C#Cc2ccccn2)cc(OC)c1OC | 25.4 | > 100 | > 30 | 3.73 | > 100 | > 100 | > 100 | > 100 | > 32.4 | > 61.8 | 2.23 | 4.14 | 2.14 | 0.563 | 1.54 | 5.5 | 4.15 | 2.28 | 2.74 | 4.12

Source: PubChem BioAssay (NCI)
